No end group written: not given here. *: point of attachment. αGalNAc = CC(=O)N[C@@H]1[C@@H](O)[C@@H](O)[C@@H](CO)O[C@@H]1*
What was measured:
[1] = system: E. coli Keio ∆sbmA (BW25113 ΔsbmA); test: Antibiotic susceptibility (growth) assay, E. coli Keio ΔsbmA; assay type: cell-based, Escherichia coli; conditions: 30 μM peptide, average of three biological replicates
Text: Many PrAMPs use the SbmA transporter to pass through the E. coli inner membrane[4],[10],[31]; however, whether drosocin also uses SbmA remains, to our knowledge, unknown. To address this, we monitored the effect of the presence of diverse drosocin peptides (Fig. 1a,b and Supplementary Fig. 1a) on the growth of the wild-type E. coli strain BW25113 containing SbmA or lacking SbmA (ΔsbmA) (Fig. 1c,d). We compared unmodified drosocin (Dro) with various modified forms (Fig. 1a,b). The modified forms included the naturally occurring Dro1 and Dro2 that carry either a monosaccharide (α-D-GalNAc) or disaccharide (β-D-Gal(1→3)-α-D-GalNAc) attached to Thr11, respectively (Fig. 1b). In addition, we examined the previously reported[23],[24] drosocin derivatives bearing β-D-Maltosyl (Dro3), α-D-GlcNAc (Dro4), β-D-Gal (Dro5), β-D-Glc (Dro6), β-D-Lactosyl (Dro7) and β-D-Cellobiosyl (Dro8) modifications on Thr11 (Fig. 1a,b and Supplementary Fig. 1a). Finally, we also included in our analysis the synthetic unmodified drosocin derivative with proline substitutions at positions 7, 11 and 12 (Dro-3P) (Fig. 1a), which was previously reported to have similar antimicrobial activity to the monosaccharide form of drosocin[25]. Growth was monitored in both rich (LB) and minimal medium in the presence of 30 μM of each peptide and normalized with the growth in the absence of the compounds (Methods). […] We also observed no inhibition for Dro2 nor for any of the β-linked disaccharides (Dro3, Dro6 or Dro7). […] By contrast, all drosocin peptides inhibited growth of the E. coli BW25113 strain in minimal medium, albeit to different extents (Fig. 1d).
(§1) Strains E. coli Keio wild-type and E. coli Keio ΔsbmA used from the Keio knockout collection (Horizon, https://horizondiscovery.com). Wild-type E. coli SQ110 (ΔrrnGADBHC(ptRNA67))[47] and SQ171 (ΔrrnGADEHBC(pKK3535, ptRNA67))[47] strains and related mutants E. coli SQ110 A2059G and E. coli SQ171 A2503G were obtained from the previous Api137 study. E. coli strains SQ171 bearing A752G, U2609C and A752G:U2609C mutations[43] and E. coli SQ171 U2609G[48] were generated previously.
(§2) The susceptibility of E. coli strains to compounds was evaluated by monitoring the bacterial growth in presence of increasing concentrations of the compound of interest. In brief, bacteria were inoculated in a total volume of 100 μl of medium contained in a well of a 96-well microplate (round bottom, with cap, sterile; Sarstedt). The medium used was either LB, as rich medium, or ATCC medium (778 Davis and Mingioli glucose minimal medium), as minimal medium. Before inoculation, bacteria were grown up to exponential phase and then inoculated into the culture mix, containing selective antibiotic if necessary, with an initial optical density at 600 nm (OD600) of 0.05. Values measured from wells containing just the medium were used as a blank. The growth in each well was monitored by measuring the OD600 every 10 minutes for a total of 20 hours at 37 °C with shaking using a plate reader (Tecan Infinite 200 PRO). The inhibition resulting from a compound’s concentration was evaluated by normalizing the OD600 at t = 12 hours (corresponding to the end of the log phase) from the treated culture to the untreated one. For each compound, the concentrations tested were 5 μM, 10 μM and 30 μM. Each single titration assay was done in triplicate with individually prepared culture mixes. For each concentration, the standard deviation was calculated, taking into account each single replica and its specific technical error from the plate reader.

E. coli SQ171 wt = test: Antibiotic susceptibility (growth) assay, E. coli SQ171 wt; assay type: cell-based, Escherichia coli; conditions: relative to no compound, mean of 3 replicas
Text: as §1, §2

[2] = system: ribosomes at the stop codon of MLIF-UAA mRNA in the presence of RF2; test: Toeprinting assay on MLIF*-mRNA with RF2; assay type: biochemical, Escherichia coli; conditions: Fig 1h, RF2 (10X), 30 μM compound, plotted values
Experimental: To ascertain which step during protein synthesis is affected by drosocin, we performed toeprinting assays, where reverse transcription is used to monitor the position of ribosomes on a defined mRNA[34].
Toeprinting reactions were performed as described previously. In brief, reactions were performed with 6 μl of PURExpress ΔRF123 in vitro protein synthesis system (NEB) in the presence of 1× RF3 and either 1× or 10× of RF1 or RF2 (relative to the manufacturer’s recommendation). The reactions were carried out on an MLIF-UAA-toeprint template (5′-[…]-3′, ORF start codon and stop codon are underlined bold), containing T7 promoter, a ribosome binding site, an MLIF-coding ORF and the NV1* primer binding site. The template is a version of the ErmBL template with a truncated ORF and addition of a isoleucine coding codon at the third position in the ORF. The template was generated by polymerase chain reaction of two overlapping 77-nt- and 78-nt-long primers. The reactions contained 30 ng of the MLIF-UAA-toeprint DNA template. The reactions were supplemented with Api137, thiostrepton or one of the drosocin derivates as specified. The transcription–translation reactions were incubated for 15 minutes at 37 °C. The reverse transcription on the MLIF-short-UAA toeprint template was carried out using AMV RT and primer NV*1-Alexa 647 (5′-[…]-3′). The transcription–translation reactions were incubated with AMV RT and NV*1-Alexa 647 for 20 minutes at 37 °C. mRNA degradation was carried out by the addition of 1 µl of 5 M NaOH. The reactions were neutralized with 0.7 µl of 25% HCl, and nucleotide removal was performed with the QIAquick Nucleotide Removal Kit (Qiagen). The samples were dried under vacuum for 2 hours at 60 °C for subsequent gel electrophoresis. The 6% acrylamide gels were scanned on a Typhoon scanner (GE Healthcare).

In the case of “Dro1: naturally occurring drosocin carrying monosaccharide α-D-GalNAc attached to Thr11 (GKPRPYSPRPT(αGalNAc)SHPRPIRV; UniProt P36193 22-40, looked up)”, the “Average of normalized growth” value ([1]; LB rich medium) is reported as 99%, the “Average of normalized growth” value ([1]; Minimal medium) is reported as 106% and the “OD600 at t = 12 h, Normalized, Average” value (E. coli SQ171 wt; 5 μM) is reported as 93%. The “OD600 at t = 12 h, Normalized, Average” value (E. coli SQ171 wt; 30 μM) was 11% and the “Relative stop band intensity signal” value [2] was 0.1899.

“Dro: unmodified drosocin, 19 amino acid proline-rich antimicrobial peptide lacking O-glycosylation (GKPRPYSPRPTSHPRPIRV; Drosocin; UniProt P36193 22-40, looked up)” was tested, and the “Average of normalized growth” value ([1]; LB rich medium) was 102%, the “Average of normalized growth” value ([1]; Minimal medium) was 102% and the “OD600 at t = 12 h, Normalized, Average” value (E. coli SQ171 wt; 5 μM) was 86%. For the same substance, the “OD600 at t = 12 h, Normalized, Average” value (E. coli SQ171 wt; 30 μM) was 72% and the “Relative stop band intensity signal” value [2] was 0.1232.

— PMC10449632, “Structural basis for translation inhibition by the glycosylated drosocin peptide” (Nature Chemical Biology, 2023)
